# Assay results from patent US10464957B2, “Oxidized lipids and methods of use thereof” (Vascular Biogenics Ltd., priority 2014, dated 2019).
# Tests used:
# [1] = system: RANTES-induced signaling in human monocytes (primary CD14+); assay: RANTES-induced signaling, western blot; type: cell-based; settings: RANTES 100 ng/ml for 15 minutes
# Description: Cells (10^6/ml) were pretreated for 20 min with VB-201 (1-hexadecyl-2-(4′-carboxy)butyl-glycero-3-phosphocholine or 1-hexadecyl-2-(4′-carboxybutyl)-glycerol-3-phosphocholine) or VB-701 at the doses indicated in FIG. 2, or with solvent (Sol), followed by 15 min activation with 100 ng/ml lipopolysaccharide (LPS) or were untreated (Unt). Cells were washed and resuspended in lysis buffer containing 1:100 dithiothreitol (DTT), phosphatase and protease inhibitors (Thermo Scientific). Samples were loaded onto a precast Criterion TGX gel (Bio-Rad, Hemel Hempstead, UK) and transferred onto nitrocellulose membrane. Blots were blocked with 5% milk or BSA in Tris buffered saline and Tween 20 (TBST) for 1 h, followed by incubation with primary and secondary antibodies. Membranes were developed using an ECL kit (Thermo Scientific). The following antibodies were used for immunoblotting:
# Human monocytes were obtained, treated and analyzed by western blot as described in Example 9 and FIG. 7, except that cells were induced with RANTES (100 ng/ml; Cat. No. 300-06, PeproTech, Israel) for 15 minutes. […] Accordingly, VB-702 and VB-201 inhibit RANTES-induced signaling in human monocytes (primary CD14+).
# nephrectomized rats = assay: 5/6 nephrectomy chronic renal disease rat model (focal and segmental glomerulosclerosis); type: in vivo, Sprague Dawley (SD) Rats
# Description: Male Sprague Dawley (SD) Rats (Harlan Laboratories, Israel) with an initial weight of 200 g were housed 2-3 per cage in IVC cages in dedicated HVAC (heat, ventilation, air conditioning animal facility at a temperature of 22±2° C. and RH (relative humidity) of 55±15%). Temperature and humidity were monitored continuously. The facility had no exposure to outside light and was maintained on automatic alternating cycles of 12 hours of light and 12 hours of dark. Animals were provided with a commercial rodent diet (Harlan Teklad TRM Rat/Mouse Diet) ad libitum and allowed free access to autoclaved water, supplied to each cage via polysulphone bottles with stainless steel sipper tubes. All animal work was approved by the Animal Care and Use Committee of Israel (IL-13-03-027).
# Rats were divided into three groups: (1) Healthy rats (n=3) in group A, (2) Sham group—subjected to chirurgical process but without kidney mass reduction (n=3) in group B, and (3) the rest were induced with chronic renal failure (n=32). Chronic renal failure was induced by a two stage (5/6) nephrectomy (Nx), with subtraction firstly of about ⅔ of the left kidney by left flank incision and, one week later, complete removal of the right kidney. General anesthesia consisted of intraperitoneal injection of ketamine 100 mg/kg and xylazine 20 mg/kg (0.85 ml ketamine+0.15 ml xylazine for each ml preparation; 1 μl/g BW was injected I.P).
# One week following the second surgery, rats were randomly assigned to the following experimental groups:
# Nephrectomized, orally administered with VB-703 4 mg/kg (n=8); and
# Nephrectomized, orally administered with telmisartan 10 mg/kg as positive control (n=8).
# Body weight (BW) was monitored throughout the study and rats were treated by oral gavage according to their body weight for 7 weeks. Rats were sacrificed by CO2 inhalation 8 weeks from removal of the right kidney (2nd surgery).
# Proteinuria and albuminuria was determined in urine specimens, collected during a 24-hour period, from animals housed in cages at 4 weeks (3 w of treatment) and 8 weeks (7 w of treatment) after the subtotal nephrectomy (2nd surgery). Urine samples were analyzed for: glucose, urea, sodium, potassium, creatinine, total protein, and albumin.
# Upon sacrifice, at 8 weeks, kidneys were collected, weighed and fixed in 4% formaldehyde.
# For light microscopy, paraffin-embedded tissue slides of 4 μm were stained with Periodic Acid-Schiff (PAS) reagent, Masson's Trichrome and Hematoxylin & Eosin.
# Glomerular sclerosis index. Glomerulosclerosis was assessed by PAS-stained sections using a semiquantitative scoring system. The extent of glomerulosclerosis was evaluated by examining mostly 100 randomly selected glomeruli at a magnification of ×400 and applying a score system according to the percentage of sclerosed glomerular area. The score was graded from 0 to 4: (0=0% area; 1=1-25%; 2=26-50%, 3=51-75%, 4=76% and above). The mean of all scored glomeruli was presented. Moreover, the extent of global and segmental glomerulosclerosis was evaluated in the same glomeruli, where <80% sclerosis was referred to as segmental and >80% was referred to as global.
# Glomerular area. The glomerular area of mostly 100 randomly selected glomeruli at a magnification of ×100 was quantitated by counting squares covered by glomeruli area using a grid and the mean glomeruli area was calculated.
# Renal tissues were fixed in 4% formaldehyde and embedded in paraffin. The paraffin-embedded tissues were then cut to form tissue slides of 4 μm. Immunohistochemistry of the paraffin-embedded tissue slides was analyzed using antibodies in the following concentration: monoclonal mouse anti rat CD-68 (ED-1, Serotec MCA341) 1:25. For quantitation of interstitial CD68+ staining, the number of positive cells was counted in 20 randomly selected non-overlapping fields per animal, and the mean value was presented. […]
# [2] = system: kidney of nephrectomized rats; assay: Real-time PCR of pro-fibrotic markers in kidney of nephrectomized rats; type: in vivo, Sprague Dawley (SD) Rats
# Description: Kidney RNA was extracted with an RNeasy Fibrous Tissue Mini kit (Qiagen) and after DNAse I treatment, single-stranded cDNA was synthesized from 2 μg total RNA using the qScript cDNA Synthesis Kit (Quanta Biosciences) and diluted for real-time PCR. The expression of collagen 4α, fibronectin and TGFβ was quantified using the 7300 Real Time PCR System (Applied Biosystems). The assay was performed according to manufacturer instructions using the primers (Assay ID) represented at the table below supplied by Applied Biosystems. Data were normalized to the reference gene TATA box Binding Protein (TBP) and presented as relative mRNA levels compared with Sham PBS 0.5% Eth treatment (Table 1).
# [3] = Nx rats, VB-703 4 mg/kg, Telmisartan 10 mg/kg, 8 weeks, Mean ± S.E
# [4] = VB-703 4 mg/kg, telmisartan 10 mg/kg, oral 7 weeks, vs Nx PBS 0.5% Eth
# [5] = compared to Nx PBS 0.5% Eth treatment, VB-703 4 mg/kg, telmisartan 10 mg/kg
# [6] = normalized to TBP, relative to Sham PBS 0.5% Eth, mean±SEM
Structure (SMILES),formation of p-ERK induced by RANTES [1],Glomerular sclerosis Global % (nephrectomized rats; [3]),Glomerular sclerosis Global & Segmental % (nephrectomized rats; [3]),Glomerular sclerosis Segmental % (nephrectomized rats; [3]),"urinary albumin/creatinine/day ratio (nephrectomized rats; VB-703 4 mg/kg oral, at the termination of the study (8 weeks))","glomerular and interstitial monocyte/macrophage infiltration (CD68 positive cells) (nephrectomized rats; VB-703 4 mg/kg, telmisartan 10 mg/kg, 8 weeks)",reduction of damaged glomeruli percent (nephrectomized rats; [4]),reduction of sclerotic glomeruli (nephrectomized rats; [4]),"reduction of Collagen IV expression [2, 5]","reduction of TGF-β expression [2, 5]","reduction of fibronectin expression [2, 5]","Collagen IV mRNA expression (relative mRNA level) [2, 6]","TGF-β mRNA expression (relative mRNA level) [2, 6]","fibronectin mRNA expression (relative mRNA level) [2, 6]"
"CCCCCCCCCCCCCCCCOCC(COP(=O)([O-])OCC[N+](C)(C)C)OCCCCC(=O)O (centres unmarked) [VB-201, 1-hexadecyl-2-(4′-carboxy)butyl-glycero-3-phosphocholine, reference compound]",inhibit,,,,,,,,,,,,,
"CCCCCCCCCCC(CCCCCCCC)COC[C@H](COP(=O)([O-])OCC[n+]1ccccc1)OCCCCC(=O)O (stereo partly drawn) [VB-703, (R)-1-(2′-octyl)dodecyl-2-(4′-carboxy)butyl-sn-glycero-3-phosphoric acid pyridiniumethyl ester]",,1.9 ± 1.55%,24.7 ± 3.77%,22.9 ± 2.83%,significantly improved,did not produce a significant effect,38%,49%,51%,42%,47%,3.7±0.52,4.8±0.32,6.7±0.98
